Measurements reported in US8546579B2, “Bicycloheteroaryl compounds as P2X7 modulators and uses thereof” (Evotec (US) Inc., priority 2006, dated 2013).

Molecular target: T1, P2X7 receptor (Homo sapiens, UniProt Q99572)
T1 construct: host or cells: THP-1 cells differentiated with LPS and IFN-γ
T1 sequence (Q99572 1-595): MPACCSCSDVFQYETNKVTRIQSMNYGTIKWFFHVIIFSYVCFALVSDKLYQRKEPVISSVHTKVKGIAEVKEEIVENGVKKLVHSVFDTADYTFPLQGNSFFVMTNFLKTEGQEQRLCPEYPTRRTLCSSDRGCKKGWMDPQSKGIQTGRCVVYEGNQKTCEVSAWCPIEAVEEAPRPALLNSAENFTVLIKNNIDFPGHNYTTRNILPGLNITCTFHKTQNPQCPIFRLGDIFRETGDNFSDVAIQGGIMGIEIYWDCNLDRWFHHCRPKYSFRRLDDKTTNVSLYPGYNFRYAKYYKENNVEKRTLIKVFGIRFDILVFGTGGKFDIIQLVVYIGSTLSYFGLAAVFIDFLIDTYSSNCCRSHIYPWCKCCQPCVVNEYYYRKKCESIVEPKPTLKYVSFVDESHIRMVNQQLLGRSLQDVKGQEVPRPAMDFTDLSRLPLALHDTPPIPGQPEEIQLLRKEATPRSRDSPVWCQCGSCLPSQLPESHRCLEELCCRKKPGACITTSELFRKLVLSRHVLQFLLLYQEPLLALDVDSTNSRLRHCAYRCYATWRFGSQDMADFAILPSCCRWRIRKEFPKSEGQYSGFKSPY
Experiment: IL-1β release assay in differentiated THP-1 cells stimulated with BzATP (Example 9)
Format: cell-based
Details: for inhibition at 0.3 µM: 0.3 μM compound, symbols + to ++++, read-out: IL-1β % Inhib. @ 0.3 μM; for inhibition at 0.3 µM / inhibition at 0.1 µM: differentiated THP-1 cells, BzATP 250 uM; for inhibition at 0.1 µM: 0.1 μM compound, symbols * to ****, read-out: IL-1β % Inhib. (asterisk symbols: at 0.1 μM); for IC50: THP-1 cells, BzATP-stimulated IL-1β release, four parameter logistic fit
Outline: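 THP-1 cells differentiated 16 h with LPS and IFN-γ (100 ng/mL each), re-primed 2 h with LPS, then compound-pretreated 30 min before 250 uM BzATP for 45 min. Supernatant IL-1β quantified by ELISA; background-adjusted percent inhibition fitted to four-parameter logistic for IC50.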

Compound | inhibition at 0.3 µM | inhibition at 0.1 µM | IC50
COCCn1ccc2c(NC(=O)Cc3ccc(C)cc3)cccc2c1=O [Compound 1318] | 0 to 25% |  | 
COCCn1ccc2c(NC(=O)CCCc3ccccc3)cccc2c1=O [Compound 1319] | 0 to 25% |  | 
COCCn1ccc2c(NC(=O)c3cc4ccccc4o3)cccc2c1=O [Compound 1320] | 0 to 25% |  | 
COCCn1ccc2c(NC(=O)Cc3ccc4c(c3)OCO4)cccc2c1=O [Compound 1321] | 0 to 25% |  | 
COCCn1ccc2c(NC(=O)Cc3cc(OC)cc(OC)c3)cccc2c1=O [Compound 1322] | 0 to 25% |  | 
COCCn1ccc2c(NC(=O)c3cc(C)c(OC)c(C)c3)cccc2c1=O [Compound 1323] | 0 to 25% |  | 
COCCn1ccc2c(NC(=O)c3ccc(C)c(Cl)c3)cccc2c1=O [Compound 1324] | 26 to 50% |  | 
COCCn1ccc2c(NC(=O)c3ccc(Cl)cc3C)cccc2c1=O [Compound 1325] | 26 to 50% |  | 
COCCn1ccc2c(NC(=O)CC3CC4CC[C@H]3C4)cccc2c1=O (stereo partly shown) [Compound 1326] | ≥ 76% |  | 
COCCn1ccc2c(NC(=O)[C@@]34C[C@@H]5C[C@@H](C[C@@H]3C5)C4)cccc2c1=O [Compound 1327] | 0 to 25% |  | 
COCCn1ccc2c(NC(=O)c3ccc4c(c3)OCCCO4)cccc2c1=O [Compound 1328] | 0 to 25% |  | 
COCCn1ccc2c(NC(=O)Cc3csc4ccccc34)cccc2c1=O [Compound 1329] | 0 to 25% |  | 
COCCn1ccc2c(NC(=O)c3cccc(Cl)c3C)cccc2c1=O [Compound 1330] | 0 to 25% |  | 
COCCn1ccc2c(NC(=O)Cc3cc(C)cc(C)c3)cccc2c1=O [Compound 1331] | 0 to 25% |  | 
COCCn1ccc2c(NC(=O)[C@H]3C[C@@H]4CC[C@H]3C4)cccc2c1=O [Compound 1332] | 0 to 25% |  | 
COCCn1ccc2c(NC(=O)Cc3ccc(OC)cc3OC)cccc2c1=O [Compound 1333] | 0 to 25% |  | 
COCCn1ccc2c(NC(=O)c3ccc(F)c(C)c3)cccc2c1=O [Compound 1334] | 0 to 25% |  | 
COCCn1ccc2c(NC(=O)CCc3ccc(Cl)cc3)cccc2c1=O [Compound 1335] | 0 to 25% |  | 
CCOc1ccccc1CC(=O)Nc1cccc2c(=O)n(CCOC)ccc12 [Compound 1336] | 0 to 25% |  | 
COCCn1ccc2c(NC(=O)Cc3ccc(OC)c(C)c3)cccc2c1=O [Compound 1337] | 0 to 25% |  | 
COCCn1ccc2c(NC(=O)CCc3cccc(C)c3)cccc2c1=O [Compound 1338] | 0 to 25% |  | 
COCCn1ccc2c(NC(=O)c3cccc(C)c3Cl)cccc2c1=O [Compound 1339] | 0 to 25% |  | 

Compound | inhibition at 0.3 µM | inhibition at 0.1 µM | IC50
COCCn1ccc2c(NC(=O)c3ccc(OC)c(C)c3)cccc2c1=O [Compound 1340] | 0 to 25% |  | 
COCCn1ccc2c(NC(=O)CCc3ccc(C)cc3C)cccc2c1=O [Compound 1341] | 0 to 25% |  | 
COCCn1ccc2c(NC(=O)CCc3cccc(Cl)c3)cccc2c1=O [Compound 1342] | 0 to 25% |  | 
COCCn1ccc2c(NC(=O)c3ccc(CC(C)C)cc3)cccc2c1=O [Compound 1343] | 0 to 25% |  | 
O=C(Nc1cccc2c(=O)n(Cc3cccnc3)ccc12)c1ccccc1Cl [Compound 1344] | 26 to 50% |  | 
Cc1cccc(C(=O)Nc2cccc3c(=O)n(Cc4cccnc4)ccc23)c1C [Compound 1345] | 0 to 25% |  | 
COc1cc(OC)cc(C(=O)Nc2cccc3c(=O)n(Cc4cccnc4)ccc23)c1 [Compound 1346] |  | 51 to 75% | 
CC(C(=O)Nc1cccc2c(=O)n(Cc3cccnc3)ccc12)c1ccccc1 (stereo not shown) [Compound 1347] |  | 26 to 50% | 
COc1ccccc1CCC(=O)Nc1cccc2c(=O)n(Cc3cccnc3)ccc12 [Compound 1348] |  | 0 to 25% | 
COc1ccc(CCC(=O)Nc2cccc3c(=O)n(Cc4cccnc4)ccc23)cc1 [Compound 1349] |  | 0 to 25% | 
O=C(Cc1cccc2ccccc12)Nc1cccc2c(=O)n(Cc3cccnc3)ccc12 [Compound 1350] |  | 0 to 25% | 
COc1ccccc1CC(=O)Nc1cccc2c(=O)n(Cc3cccnc3)ccc12 [Compound 1351] | 0 to 25% |  | 
COc1ccc(OC)c(CC(=O)Nc2cccc3c(=O)n(Cc4cccnc4)ccc23)c1 [Compound 1352] | 0 to 25% |  | 
COc1cccc(CC(=O)Nc2cccc3c(=O)n(Cc4cccnc4)ccc23)c1 [Compound 1353] | 0 to 25% |  | 
COc1ccc(CC(=O)Nc2cccc3c(=O)n(Cc4cccnc4)ccc23)cc1OC [Compound 1354] | 0 to 25% |  | 
COc1ccc(CC(=O)Nc2cccc3c(=O)n(Cc4cccnc4)ccc23)cc1 [Compound 1355] | 0 to 25% |  | 
Cc1ccc(CC(=O)Nc2cccc3c(=O)n(Cc4cccnc4)ccc23)cc1 [Compound 1356] | 0 to 25% |  | 
O=C(CCCc1ccccc1)Nc1cccc2c(=O)n(Cc3cccnc3)ccc12 [Compound 1357] | 0 to 25% |  | 
O=C(Nc1cccc2c(=O)n(Cc3cccnc3)ccc12)c1cc2ccccc2o1 [Compound 1358] | 0 to 25% |  | 
O=C(Cc1ccc2c(c1)OCO2)Nc1cccc2c(=O)n(Cc3cccnc3)ccc12 [Compound 1359] | 26 to 50% |  | 
COc1cc(CC(=O)Nc2cccc3c(=O)n(Cc4cccnc4)ccc23)cc(OC)c1 [Compound 1360] | 26 to 50% |  | 
COc1c(C)cc(C(=O)Nc2cccc3c(=O)n(Cc4cccnc4)ccc23)cc1C [Compound 1361] | 0 to 25% |  | 

Compound | inhibition at 0.3 µM | inhibition at 0.1 µM | IC50
O=C(Nc1cccc2c(=O)n(Cc3cccnc3)ccc12)[C@@]12C[C@@H]3C[C@@H](C[C@@H]1C3)C2 [Compound 1362] | 0 to 25% |  | 
O=C(Nc1cccc2c(=O)n(Cc3cccnc3)ccc12)c1cccc2c1OCCO2 [Compound 1363] | 0 to 25% |  | 
O=C(Nc1cccc2c(=O)n(Cc3cccnc3)ccc12)c1ccc2c(c1)OCCCO2 [Compound 1364] | 0 to 25% |  | 
COc1ccc(CC(=O)Nc2cccc3c(=O)n(Cc4cccnc4)ccc23)c(OC)c1 [Compound 1365] | 0 to 25% |  | 
CCOc1ccccc1CC(=O)Nc1cccc2c(=O)n(Cc3cccnc3)ccc12 [Compound 1366] | 26 to 50% |  | 0.41 µM
COc1ccc(CC(=O)Nc2cccc3c(=O)n(Cc4cccnc4)ccc23)cc1C [Compound 1367] | 0 to 25% |  | 
Cc1ccc(Cl)cc1C(=O)Nc1cccc2c(=O)n(Cc3cccnc3)ccc12 [Compound 1368] | 0 to 25% |  | 
Cc1cccc(CCC(=O)Nc2cccc3c(=O)n(Cc4cccnc4)ccc23)c1 [Compound 1369] | 0 to 25% |  | 
Cc1cccc(C(=O)Nc2cccc3c(=O)n(Cc4cccnc4)ccc23)c1Cl [Compound 1370] | 0 to 25% |  | 
COc1ccc(C(=O)Nc2cccc3c(=O)n(Cc4cccnc4)ccc23)cc1C [Compound 1371] | 0 to 25% |  | 
CC(C)Cc1ccc(C(=O)Nc2cccc3c(=O)n(Cc4cccnc4)ccc23)cc1 [Compound 1372] | 0 to 25% |  | 
O=C(CC1CCCCCC1)Nc1cccc2c(=O)n(CC3CCOCC3)ccc12 [Compound 1373, 2-Cycloheptyl-N-[1-oxo-2-(tetrahydro-pyran-4-ylmethyl)-1,2-dihydro-isoquinolin-5-yl]-acetamide] | ≥ 76% |  | 0.0721 µM
CC(=O)OCCn1ccc2c(NC(=O)CCc3cc(C(F)(F)F)ccc3C(F)(F)F)cccc2c1=O [Compound 1374] | ≥ 76% |  | 0.0406 µM
CC(=O)OCCn1ccc2c(NC(=O)CC3CCCCCC3)cccc2c1=O [Compound 1375] | ≥ 76% |  | 0.0867 µM
CC(=O)OCCn1ccc2c(NC(=O)CCc3cc(C(F)(F)F)cc(C(F)(F)F)c3)cccc2c1=O [Compound 1376] | 0 to 25% |  | 0.731 µM
CC(=O)OCCn1ccc2c(NC(=O)Cc3ccc4c(c3)OCCO4)cccc2c1=O [Compound 1377] | 0 to 25% |  | > 1 µM
CC(=O)OCCn1ccc2c(NC(=O)Cc3cc(C(F)(F)F)cc(C(F)(F)F)c3)cccc2c1=O [Compound 1378] | 51 to 75% |  | 0.121 µM
CC(=O)OCCn1ccc2c(NC(=O)CC3CCCCC3)cccc2c1=O [Compound 1379] | ≥ 76% |  | 0.0415 µM
CC(=O)OCCn1ccc2c(NC(=O)Cc3ccc(Cl)c(C(F)(F)F)c3)cccc2c1=O [Compound 1380, Acetic acid 2-{5-[2-(4-chloro-3-trifluoromethyl-phenyl)-acetylamino]-1-oxo-1H-isoquinolin-2-yl}-ethyl ester] | ≥ 76% |  | 0.00533 µM
CC(=O)OCCn1ccc2c(NC(=O)Cc3ccc(Cl)cc3Cl)cccc2c1=O [Compound 1381] | ≥ 76% |  | 0.0341 µM
CC(=O)OCCn1ccc2c(NC(=O)Cc3cc(C(F)(F)F)ccc3C(F)(F)F)cccc2c1=O [Compound 1382] | 26 to 50% |  | 0.602 µM
